The results in this text go back to US8519188B2, “Compounds which can be used for the treatment of cancers” (Marc-Henry Pitty, priority 2008, dated 2013).

Some results are limits rather than exact numbers.

Assay [1] deals with MCF-7/adr adriamycin-resistant breast cancer cell line. Briefly: Cell proliferation (CellTiter 96 AQueous MTS/PMS), MCF-7/adr. It counts as cell-based. As to conditions: Homo sapiens, NCI/ADR-RES; MCF-7/adr; 72 hours of incubation; concentration that induces the death of 50% of the cells; read-out: CI50 for various cell lines (nM) MCF-7/adr. The protocol: (§1) The effects of the compounds of the invention on the proliferation of cancer cells were studied on various human cancer cell lines of various tissue origins (MCF-7: breast cancer, MCF-7/adr adriamycin-resistant breast cancer, ARH-77: myeloma, ARH-77/Dox: doxorubicin (other name for adriamycin)-resistant myeloma, HL-60: acute promyelocytic leukaemia, HL-60/R10: doxorubicin-resistant acute promyelocytic leukaemia). The cancer cells used for this study were incubated at 37° C. in the presence of one of the compounds of the invention added to the culture medium at various concentrations.
(§2) The cancer cell lines originate from the ATCC (American Type Culture Collection) in the case of MCF-7, ARH-77 and HL-60, from Pharmacell (Paris, France) for HL-60/R10, from Oncodesign (Dijon, France) for ARH-77/Dox and from the Pitié Salpetrière Hospital for MCF-7/adr. They were cultivated in a RPMI 1640 medium containing 2 mM L-glutamine and supplemented with 10% foetal calf serum. All the cell lines were maintained in culture at 37° C. in a moist atmosphere containing 5% CO2. Cell proliferation was evaluated using the “CellTiter 96® AQueous” reagent (Promega, Wis., USA) while adhering to the manufacturer's instructions. The cells were seeded in 96-well culture plates in a proportion of from 5,000 to 10,000 cells per well in 200 μl of culture medium. After 24 hours of preincubation at 37° C., the compounds of the invention dissolved in dimethyl sulphoxide (DMSO) were added individually to each of the wells in a proportion of 2 μl per well. After 72 hours of incubation at 37° C. in a moist atmosphere containing 5% CO2, 40 μL of a MTS/PMS ([3-(4,5-dimethylthiazol-2-yl)-5-(3-carboxymethoxyphenyl)-2-(4-sulphophenyl)-2H-tetrazolium phenazine methosulphate) solution were added to each well.

In assay [2] the test system is MCF-7 breast cancer cell line. Briefly: Cell proliferation (CellTiter 96 AQueous MTS/PMS), MCF-7. It counts as cell-based. As to conditions: Homo sapiens, MCF7; MCF-7; 72 hours of incubation; concentration that induces the death of 50% of the cells; read-out: CI50 for various cell lines (nM) MCF-7. As for the experimental part:
as §1, §2

Consider `C#CC(=O)N(c1cccc(-c2ccccc2)c1)C(C(=O)NC1CCCCC1)c1cccs1` (stereo not drawn) [Compound 58, Propynoic acid biphenyl-3-yl-(cyclohexylcarbamoylthiophen-2-yl-methyl)amide], for which the IC50 in assay [1] worked out at 2.4 nM; in assay [2], 580 nM.
The like results for `C#CC(=O)N(c1ccccc1C)C(C(=O)NC1CCCCC1)c1cccs1` (stereo not drawn) [Compound 60, Propynoic Acid (cyclohexylcarbamoylthiophen-2-yl-methyl)-o-tolylamide] were, in that order, 3.5 nM and 357 nM.
Regarding `C#CC(=O)N(c1cccc(C(F)(F)F)c1)C(C(=O)NC1CCCCC1)c1ccc2c(c1)OCO2` (stereo not drawn) [Compound 63, Propynoic Acid (benzo[1,3]dioxol-5-yl-cyclohexylcarbamoylmethyl)-(3-trifluoromethylphenyl)amide], the figures for the IC50 in assay [1] and in assay [2] were 2 nM and 401 nM, respectively.
Regarding `C#CC(=O)N(c1cccc(C(F)(F)F)c1)C(C(=O)NC1CCCCC1)c1ccccc1F` (stereo not drawn) [Compound 72, Propynoic Acid [cyclo hexylcarbamoyl-(2-fluorophenyl)methyl]-(3-trifluoromethylphenyl)amide], the IC50 came out at 3 nM in assay [1] and 619 nM in assay [2].
With `C#CC(=O)N(c1cccc(C(F)(F)F)c1)C(C(=O)NC1CCCCC1)c1ccc(F)cc1` (stereo not drawn) [Compound 74, Propynoic Acid [cyclohexylcarbamoyl-(4-fluorophenyl)methyl]-(3-trifluoromethylphenyl)amide], the IC50 in assay [1] was 2.9 nM; in assay [2], 506 nM.
On the same counts, the results for `C#CC(=O)N(c1cccc(C(F)(F)F)c1)C(C(=O)NC1CCCCC1)c1ccc(C#N)cc1` (stereo not drawn) [Compound 81, Propynoic Acid [(4-cyanophenyl)cyclohexylcarbamoylmethyl]-(3-trifluoromethylphenyl)amide] are 1.6 nM and 269 nM.
On the same counts, the results for `C#CC(=O)N(c1cccc(C(F)(F)F)c1)C(C(=O)NC1CCCCC1)c1cccc2c1OCO2` (stereo not drawn) [Compound 84, Propynoic Acid (benzo[1,3]dioxol-4-yl-cyclohexylcarbamoylmethyl)-(3-trifluoromethyl-phenyl)amide] are 1.6 nM and 250 nM.
On the same counts, the results for `C#CC(=O)N(c1cccc(C(F)(F)F)c1)C(C(=O)NC1CCCCC1)c1ccccc1[N+](=O)[O-]` (stereo not drawn) [Compound 85, Propynoic Acid [cyclohexylcarbamoyl-(2-nitrophenyl)methyl]-(3-trifluoromethylphenyl)amide] are 1.6 nM and 177 nM.
Consider `C#CC(=O)N(c1cccc(C(F)(F)F)c1)C(C(=O)NC1CCCCC1)c1ccc(Cl)cc1Cl` (stereo not drawn) [Compound 86, Propynoic Acid [cyclohexylcarbamoyl-(2,4-dichlorophenyl)methyl]-(3-trifluoromethylphenyl)amide], for which the values for the IC50 in assay [1] and in assay [2] were 0.8 nM and 216 nM, respectively.
Take `C#CC(=O)N(c1cccc(C(F)(F)F)c1)C(C(=O)NC1CCCCC1)c1ccc(SC)cc1` (stereo not drawn) [Compound 88, Propynoic Acid [cyclohexylcarbamoyl-(4-methylsulphanylphenyl)methyl]-(3-trifluoromethylphenyl)amide]: the IC50 in assay [1] was 1.4 nM; in assay [2], 334 nM.
On the same counts, the results for `C#CC(=O)N(c1cccc(C(F)(F)F)c1)C(C(=O)NC1CCCCC1)c1ccc(C(C)C)cc1` (stereo not drawn) [Compound 89, Propynoic Acid [cyclo hexylcarbamoyl-(4-isopropylphenyl)methyl]-(3-trifluoromethylphenyl)amide] are 2.2 nM and 825 nM.
In the case of `C#CC(=O)N(c1cccc(C(F)(F)F)c1)C(C(=O)NC1CCCCC1)c1cccc(Oc2ccccc2)c1` (stereo not drawn) [Compound 90, Propynoic Acid [cyclohexylcarbamoyl-(3-phenoxyphenyl)methyl]-(3-trifluoromethylphenyl)amide], the IC50 in assay [1] came to 2.2 nM; in assay [2], 820 nM.
For the molecule `C#CC(=O)N(c1cccc(C(F)(F)F)c1)C(C(=O)NC1CCCCC1)c1cccc(C)c1` (stereo not drawn) [Compound 94, Propynoic Acid (cyclohexylcarbamoyl-m-tolylmethyl)-(3-trifluoromethylphenyl)amide], the IC50 is 2 nM in assay [1] and 599 nM in assay [2].
On the same counts, the results for `C#CC(=O)N(c1cccc(C(F)(F)F)c1)C(C(=O)NC1CCCCC1)c1cccc(C#N)c1` (stereo not drawn) [Compound 95, Propynoic Acid [(3-cyanophenyl)-cyclohexylcarbamoylmethyl]-(3-trifluoromethylphenyl)amide] are 1.4 nM and 243 nM.
Regarding `C#CC(=O)N(c1cccc(C(F)(F)F)c1)C(C(=O)NC1CCCCC1)c1ccc(C)cc1C` (stereo not drawn) [Compound 100, Propynoic Acid [cyclohexylcarbamoyl-(2,4-dimethylphenyl)methyl]-(3-trifluoromethylphenyl)amide], the IC50 was 0.5 nM in assay [1] and 308 nM in assay [2].
As to `C#CC(=O)N(c1cccc(C(F)(F)F)c1)C(C(=O)NC1CCCCC1)c1ccc(N2CCCC2)cc1` (stereo not drawn) [Compound 101, Propynoic Acid [cyclohexylcarbamoyl-(4-pyrrolidin-1-yl-phenyl)methyl]-(3-trifluoromethylphenyl)amide], the IC50 in assay [1] worked out at 1.1 nM; in assay [2], 416 nM.
On the same counts, the results for `C#CC(=O)N(c1cccc(C(F)(F)F)c1)C(C(=O)NC1CCCCC1)c1ccc(Cl)c(Cl)c1` (stereo not drawn) [Compound 102, Propynoic Acid [cyclohexylcarbamoyl-(3,4-dichlorophenyl)methyl]-(3-trifluoromethylphenyl)amide] are 1 nM and 428 nM.
`C#CC(=O)N(c1cccc(C(F)(F)F)c1)C(C(=O)NC1CCCCC1)c1cccc(F)c1F` (stereo not drawn) [Compound 106, Propynoic Acid [cyclohexylcarbamoyl-(2,3-difluorophenyl)methyl]-(3-trifluoromethylphenyl)amide]: the figures for the IC50 in assay [1] and in assay [2] were 1 nM and 260 nM, respectively.
The like results for `O=C(NC1CCCCC1)C(c1cccs1)N(C(=O)CBr)c1cccc(C(F)(F)F)c1` (stereo not drawn) [Compound 107, 2-[(2-Bromoacetyl)-(3-trifluoromethylphenyl)amino]-N-cyclohexyl-2-thiophen-2-yl-acetamide] were, in that order, 0.5 nM and 267 nM.
With `COc1ccc(N(C(=O)CCl)C(C(=O)NC2CCCCC2)c2cccs2)cc1` (stereo not drawn) [Compound 109, 2-[(2-Chloroacetyl)-(4-methoxyphenyl)amino]-N-cyclohexyl-2-thiophen-2-yl-acetamide], the IC50 in assay [1] was found to be 1 nM; in assay [2], 100 nM.
The like results for `O=C(NC1CCCCC1)C(c1cccs1)N(C(=O)CCl)c1cccc(C(F)(F)F)c1` (stereo not drawn) [Compound 110, 2-[(2-Chloroacetyl)-(3-trifluoromethylphenyl)amino]-N-cyclo hexyl-2-thiophen-2-yl-acetamide] were, in that order, 1 nM and 70 nM.
On the same counts, the results for `C#CC(=O)N(c1cccc(C(F)(F)F)c1)C(C(=O)Nc1ccccc1OCc1ccccc1)c1cccs1` (stereo not drawn) [Compound 112, Propynoic Acid [(2-benzyloxyphenylcarbamoyl)thiophen-2-yl-methyl]-(3-trifluoromethylphenyl)amide] are 1.8 nM and 200 nM.
Consider `N#Cc1cccc(N(C(=O)CCl)C(C(=O)NC2CCCCC2)c2cccs2)c1` (stereo not drawn) [Compound 121, 2-[(2-Chloroacetyl)-(3-cyanophenyl)amino]-N-cyclohexyl-2-thiophen-2-yl-acetamide], for which the IC50 in assay [1] worked out at 70 nM; in assay [2] it was 252 nM.
Turning to `N#Cc1ccc(N(C(=O)CCl)C(C(=O)NC2CCCCC2)c2cccs2)cc1` (stereo not drawn) [Compound 122, 2-[(2-Chloroacetyl)-(4-cyanophenyl)amino]-N-cyclohexyl-2-thiophen-2-yl-acetamide], the values for the IC50 in assay [1] and in assay [2] were 4 nM and 300 nM, respectively.
With `COc1ccccc1N(C(=O)CCl)C(C(=O)NC1CCCCC1)c1cccs1` (stereo not drawn) [Compound 124, 2-[(2-Chloroacetyl)-(2-methoxyphenyl)amino]-N-cyclohexyl-2-thiophen-2-yl-acetamide], the IC50 was 27 nM in assay [1] and greater than 2000 nM in assay [2].
The like results for `CCN(CC)c1ccc(N(C(=O)CCl)C(C(=O)NC2CCCCC2)c2cccs2)cc1` (stereo not drawn) [Compound 127, 2-[(2-Chloroacetyl)-(4-diethylaminophenyl)amino]-N-cyclohexyl-2-thiophen-2-yl-acetamide] were, in that order, 7.5 nM and 77 nM.
`O=C(NC1CCCCC1)C(c1cccs1)N(C(=O)CCl)c1ccc(O)cc1` (stereo not drawn) [Compound 128, 2-[(2-Chloroacetyl)-(4-hydroxyphenyl)amino]-N-cyclohexyl-2-thiophen-2-yl-acetamide]: the IC50 in assay [1] came to 86 nM; in assay [2] it was 133 nM.
